Measured values as given in patent US11685761B2, “Cyclic di-nucleotide compounds as sting agonists” (Merck Sharp & Dohme Corp., priority 2017, dated 2023).

Tests used:
[1] = system: IFN-β secretion from THP1 cells; test: IFN-β secretion in THP1 cell culture (5 h); type: cell-based, human; conditions: THP1 cells, 5 h incubation, compound at 30 μM, 30 uM cGAMP = 100%; for activation at 30 µM: Homo sapiens, THP-1, 5 h, read-out: % Effect at 30 μM relative to 2′3′-cGAMP
Procedure: The ability of compounds to stimulate the secretion of interferon-beta from THP1 cells was measured using a human IFN-β AlphaLISA kit (Perkin Elmer, Cat. No. AL265F). The basic protocol is as follows:
The cell viability and count was ascertained using a Beckman Coulter V-Cell XR cell counter. The cell suspension was centrifuged at 200×g for 5 min at RT. Cells were resuspended to a density of 0.8×10^6/mL in 37° C. assay medium. Subsequent liquid transfers were performed using either a Matrix electronic multichannel pipette or an Agilent Bravo Automated Liquid Handling Platform.
The assay was started by dispensing 40 μL of the previously prepared cell suspension into the wells of the plate containing compounds. After 5 h incubation at 37° C., 5% CO2 in a humidified atmosphere, the plate of cells and compounds was centrifuged at 200×g for 5 min at RT. […] To these supernatant-containing wells was added 10 μL of 5× Anti-Analyte Acceptor beads (50 μg/mL of AlphaLISA HiBlock Buffer) and incubated for 30 min at RT while shaking on an orbital plate shaker. To each well was added 10 μL of 5× Biotinylated Antibody Anti-analyte (5 nM in AlphaLISA HiBlock Buffer) and incubated on an orbital plate shaker for 60 min at RT or overnight at 4° C. To each well was added 25 μL of 2× SA-Donor beads (80 μg/mL in AlphaLISA HiBlock Buffer) and incubated for 30-45 min at RT in the dark while shaking on an orbital plate shaker. The plate was then read on a Perkin Elmer Envision (λex680 nm, λem=570 nm). The percent effect of the AlphaLISA signal at each compound concentration was calculated based on 30 uM cGAMP positive controls and 0.3% DMSO negative controls. The plot of percent effect versus the log of compound concentration was fit with a 4-parameter concentration response equation to calculate EC50 values.
Compounds of the disclosure were evaluated for IFN-β secretion in THP1 cell culture as described above.

[2] = target: T1, full-length HAQ STING (Homo sapiens, UniProt Q86WV6, G230A/H232R/R293Q/R71H); test: 3H-cGAMP filtration binding assay (HAQ STING); conditions: competition with tritiated cGAMP ligand; T. ni cell membranes overexpressing full-length HAQ STING
T1 construct: made in house; host or cells: Trichoplusia ni (Hi-Five) insect cells, baculovirus generated in Sf21; crude membranes
From the text: The ability of compounds to bind STING is quantified by the ability to compete with tritiated cGAMP ligand for human STING receptor membrane using a radioactive filter-binding assay. The binding assay employs STING receptor obtained from Hi-Five cell membranes overexpressing full-length HAQ STING prepared in-house and tritiated cGAMP ligand also purified in-house.
(§1) The ability of compounds to bind STING is quantified by their ability to compete with tritiated cGAMP ligand for human STING receptor membrane using a radioactive filter-binding assay. The binding assay employs STING receptor obtained from Trichoplusia ni cell membranes (T. ni; Expression Systems, cat #94-002F, www.expressionsystems.com) overexpressing full-length HAQ STING and tritiated cGAMP ligand.
The basic HAQ STING filtration assay protocol is as follows:
The compounds were serially titrated by the Hamilton STARPlus CORE in a 96-well plate (Greiner, #651201) using a 1:3 ten-point dose response format. […] 148 uL of prepared membrane was then manually added to each well of a 96-well deep-well polypropylene plate (Fisher Scientific, #12-566-121). Following membrane addition, 2 uL of either titrated test compound, DMSO control (Sigma #276855), or cold cGAMP control was added to the appropriate wells using a BIOMEK FX. Compound and membrane then preincubated for 60 min at RT to allow compound binding to equilibrate. Following equilibration, 8 nM of [^3H] c-GAMP ligand was prepared by diluting into assay buffer, and 50 uL of this working stock was then manually added to each well of the assay plate. Plates were then incubated at RT for 60 min, and the contents of each assay plate were then filtered through a 96-well GF/B filter plate (PerkinElmer, #6005250) using a TOMTEC MACH III Cell Harvester equipped with 20 mM HEPES buffer (Fisher Scientific, #BP299500). The filter plates were then dried at 55° C. for 30 min using a pressurized oven before 30 uL of ULTIMA GOLD F scintillate was added to each well. Tritium levels for each reaction well were then measured using a PerkinElmer TopCount plate reader.
(§2) After normalization to controls, the percent activity for each compound concentration was calculated by measuring the amount of remaining radioactivity. The plot of percent activity versus the log of compound concentration was fit with a 4-parameter dose response equation to calculate EC50 values.

[3] = target: T2, full-length WT STING (Homo sapiens, UniProt Q86WV6, H232R); test: 3H-cGAMP filtration binding assay (WT STING); conditions: competition with tritiated cGAMP ligand; T. ni cell membranes overexpressing full-length WT STING
T2 construct: made in house; host or cells: Trichoplusia ni insect cells, baculovirus generated in Sf21; crude membranes
Procedure: as §1, with “WT” for “HAQ”
The basic WT STING filtration assay protocol is as follows:
16 nM of [^3H] c-GAMP ligand was prepared by diluting into assay buffer, and 50 uL of this working stock was manually added to each well of the assay plate. After ligand addition, 2 uL of either titrated test compound, DMSO control (Sigma #276855), or cold cGAMP control was added to the appropriate wells using a BIOMEK FX. The serially titrated compound was prepared on a Hamilton STARPlus CORE in a 96-well plate (Greiner, #651201) using a 1:3 ten-point dose response format. Following compound addition, a 2.2 ug/ml working concentration of STING membrane (SEQ. ID. No. 3) was prepared by diluting concentrated membrane into assay buffer (1×PBS; Invitrogen #SH30028.02) and douncing 7× using a manual tissue homogenizer (Wheaton, #357546). 148 uL of this prepared membrane was then manually added to each well of a 96-well deep-well polypropylene plate (Fisher Scientific, #12-566-121). Compound, ligand, and membrane then incubated for 60 min at RT before the contents of each assay plate were filtered through a 96-well GF/B filter plate (PerkinElmer, #6005250) using a TOMTEC MACH III Cell Harvester equipped with 20 mM HEPES buffer (Fisher Scientific, #BP299500). The filter plates were then dried at 55° C. for 30 min using a pressurized VWR oven before 30 uL of ULTIMA GOLD F scintillate was added to each well. Tritium levels for each reaction well were then measured using a PerkinElmer TopCount plate reader.
as §2

T1 sequence (Q86WV6 with tags, fused parts or gaps R71H/G230A/H232R/R293Q): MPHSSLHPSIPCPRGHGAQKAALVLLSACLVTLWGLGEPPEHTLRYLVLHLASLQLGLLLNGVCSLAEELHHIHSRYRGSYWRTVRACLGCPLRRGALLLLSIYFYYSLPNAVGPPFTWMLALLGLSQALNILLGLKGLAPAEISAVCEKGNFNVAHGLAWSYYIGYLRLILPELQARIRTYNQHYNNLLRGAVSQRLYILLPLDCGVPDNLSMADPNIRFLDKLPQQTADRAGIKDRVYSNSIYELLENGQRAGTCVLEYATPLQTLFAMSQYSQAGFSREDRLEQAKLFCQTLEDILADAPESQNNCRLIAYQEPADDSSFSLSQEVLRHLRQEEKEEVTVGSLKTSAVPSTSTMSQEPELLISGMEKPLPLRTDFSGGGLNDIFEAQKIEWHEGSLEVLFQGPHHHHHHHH
T2 sequence (Q86WV6 with tags, fused parts or gaps H232R): as the sequence (Q86WV6 with tags, fused parts or gaps R71H/G230A/H232R/R293Q) above, with H71R, A230G, Q293R counted along it

SMILES	activation at 30 µM [1] [%]	EC50 [2] [nM]	EC50 [3] [nM]	% Effect at 30 μM relative to 2′3′-cGAMP [1] [%]
Nc1nc2c(ncn2[C@@H]2O[C@@H]3COP(=O)(S)O[C@H]4C[C@H](n5cc(F)c6c(=O)[nH]cnc65)O[C@@H]4COP(=O)(S)O[C@@H]2[C@@H]3F)c(=O)[nH]1 (single isomer, unassigned) [Example 53]	85	167	253	–
Nc1nc2c(ncn2[C@@H]2O[C@@H]3CO[P@](=O)(S)O[C@H]4[C@H](F)[C@H](n5ccc6c(=O)[nH]cnc65)O[C@@H]4CO[P@@](=O)(S)O[C@@H]2C3)c(=O)[nH]1 [Example 41, 2-amino-9-[(2R,5S,7R,8R,10R,12aR,14R,15S,15aR)-15-fluoro-2,10-dioxido-14-(4-oxo-3,4-dihydro-7H-pyrrolo[2,3-d]pyrimidin-7-yl)-2,10-disulfanyl-octahydro-12H-5,8-methanofuro[3,2-l] [1,3,6,9,11,2,10]pentaoxadiphosphacyclotetradecin-7-yl]-l,9-dihydro-6H-purin-6-one]	156	2	124	–
Nc1ncnc2c1ncn2[C@@H]1O[C@@H]2CO[P@@](=O)(S)O[C@@H]3[C@H](O)[C@@H](CO[P@](=O)(S)O[C@H]2[C@@H]1F)O[C@H]3n1ccc(=O)n2ccnc12 [Example 3, 8-[(2S,5R,7R,8R,10R,12aR,14R,15S,15aR, 16R)-14-(6-amino-9H-purin-9-yl)-15-fluoro-16-hydroxy-2,10-dioxido-2,10-disulfanyloctahydro-12H-5,8-methanofuro[3,2-l][1,3,6,9,11,2,10]pentaoxadiphosphacyclotetradecin-7-yl]imidazo [1,2-a]pyrimidin-5(8H)-one]	20	140	1860	–
Nc1ncnc2c1ncn2[C@@H]1O[C@@H]2COP(=O)(S)O[C@@H]3[C@H](O)[C@@H](COP(=O)(S)O[C@H]2[C@@H]1F)O[C@H]3n1cnc2c(=O)n3c(nc21)NC(=O)C3 (stereo partly drawn) [Example 14, 3-[(5R,7R,8R,12aR,14R,15S,15aR,16R)-14-(6-amino-9H-purin-9-yl)-15-fluoro-16-hydroxy-2,10-dioxido-2,10-disulfanyloctahydro-12H-5,8-methanofuro[3,2-l][l,3,6,9,11,2,10]pentaoxadiphosphacyclotetradecin-7-yl]-3H-imidazo[1,2-a]purine-6,9(5H,7H)-dione]	12	–	433	–
Nc1nc2c(nnn2[C@@H]2S[C@@H]3COP(=O)(S)O[C@H]4[C@H](F)[C@H](n5ccc6c(=O)[nH]cnc65)O[C@@H]4COP(=O)(S)O[C@@H]2[C@@H]3F)c(=O)[nH]1 (single isomer, unassigned) [Example 49]	–	1	756	163
O=c1[nH]cnc2c1ncn2[C@@H]1O[C@@H]2CO[P@@](=O)(S)O[C@@H]3C[C@@H](CO[P@@](=O)(S)O[C@H]2[C@@H]1F)O[C@H]3n1ccc(=O)n2ccnc12 [Example 29, 9-[(2R,5S,7R,8R,10R,12aR,14R,15S,15aR)-15-fluoro-2,10-dioxido-7-(5-oxoimidazo[1,2-a]pyrimidin-8(5H)-yl)-2,10-disulfanyloctahydro-12H-5,8-methanofuro[3,2-l][1,3,6,9,11,2,10]pentaoxadiphosphacyclotetradecin-14-yl]-1,9-dihydro-6H-purin-6-one]	150	45	136	–
Nc1ncnc2c1ncn2[C@@H]1O[C@@H]2COP(=O)(S)O[C@H]3[C@H](F)[C@H](n4ccc5c(=O)[nH]cnc54)O[C@@H]3COP(=O)(S)O[C@@H]1C2 (single isomer, unassigned) [Example 46]	–	16	2400	166
Nc1ncnc2c1ncn2[C@@H]1O[C@@H]2CO[P@@](=O)(S)O[C@@H]3[C@H](O)[C@@H](CO[P@](=O)(S)O[C@H]2[C@H]1O)O[C@H]3n1ccc(=O)n2ccnc12 [Example 2, 8-[(2S,5R,7R,8R,10R,12aR,14R,15R,15aS,16R)-14-(6-amino-9H-purin-9-yl)-15,16-dihydroxy-2,10-dioxido-2,10-disulfanyloctahydro-12H-5,8-methanofuro[3,2-l][1,3,6,9,11,2,10]pentaoxadiphospha-cyclotetradecin-7-yl]imidazo[1,2-a]pyrimidin-5(8H)-one]	44	2	32	–
Nc1ncnc2c1nnn2[C@@H]1O[C@@H]2COP(=O)(S)O[C@@H]3[C@H](O)[C@@H](COP(=O)(S)O[C@H]2[C@@H]1F)O[C@H]3n1ccc(=O)n2ccnc12 (stereo partly drawn) [Example 4]	139	59	1760	–
Nc1ncnc2c1ncn2[C@@H]1O[C@@H]2COP(=O)(S)O[C@@H]3[C@H](O)[C@@H](COP(=O)(S)O[C@H]2[C@@H]1F)O[C@H]3n1cnc2c(=O)n3cc[nH]c3nc21 (single isomer, unassigned) [Example 15]	–	–	43	318
Nc1ncnc2c1ncn2[C@@H]1O[C@@H]2COP(=O)(S)O[C@@H]3[C@H](O)[C@@H](COP(=O)(S)O[C@H]2[C@@H]1F)O[C@H]3n1cnc2c(=O)n3cc[nH]c3nc21 (single isomer, unassigned) [Example 16]	–	–	90	281
